What is called IC50 is the concentration needed to halve the response being measured. Read a high IC50 as lower potency.

The source of these data is article PMC8061081 (Fitoterapia, 2021).

The target in assay [1] is T1, SARS-CoV-2 3CL^pro (Severe acute respiratory syndrome coronavirus 2, UniProt P0DTD1). Description: biochemical.
For assay [2], the target named is T1, SARS-CoV-2 3CL^pro. As to the kind of experiment: Inhibition kinetics, determination of inhibition constants. Type of assay: biochemical. The settings on record: inhibition kinetic plots and Lineweaver-Burk plots.

Read-outs that look alike come from different tables or passages of the source. A value given as a limit tells only on which side of the number the result lay.

`C[C@@H]1C(=O)O[C@H]2C[C@@]34[C@H]5C[C@@H](C(C)(C)C)[C@]36[C@@H](OC(=O)[C@@H]6O)O[C@@]4(C(=O)O5)[C@]21O` [ginkgolide A] displayed a 50% inhibitory concentration (IC50) on SARS-CoV-2 3CL^pro [1] greater than 100 µM. The compound `C[C@@H]1O[C@@H](Oc2c(-c3ccc(O)c(O)c3)oc3cc(O)cc(O)c3c2=O)[C@H](O)[C@H](O)[C@H]1O` [quercitrin] returned an IC50 on SARS-CoV-2 3CL^pro [1] greater than 100 µM.

Compound `COc1ccc(-c2cc(=O)c3c(O)cc(O)cc3o2)cc1-c1c(O)cc(O)c2c(=O)cc(-c3ccc(O)cc3)oc12` [bilobetin] displayed an IC50 at SARS-CoV-2 3CL^pro [1] of 11.2 ± 2.41 µM. Same read-out and setting: with `COc1ccc(-c2cc(=O)c3c(O)cc(O)c(-c4cc(-c5cc(=O)c6c(O)cc(O)cc6o5)ccc4OC)c3o2)cc1` [isoginkgetin] the figure was 2.33 ± 0.46 µM; with `O=c1c(O)c(-c2ccc(O)cc2)oc2cc(O)cc(O)c12` [kaempferol], greater than 100 µM.

For the compound `COc1cc(O)c2c(=O)cc(-c3ccc(O)cc3)oc2c1` [genkwanin], the IC50 on SARS-CoV-2 3CL^pro [1] was determined as 10.6 ± 1.89 µM. For `CCCCCCCCCCCCCCCc1cccc(O)c1C(=O)O` [GA C15:0], the Inhibition mode result at SARS-CoV-2 3CL^pro [2] is “reversible and mixed-inhibition”. In the case of `CCCCCCCCCCCCCc1cccc(O)c1C(=O)O` [GA C13:0], on SARS-CoV-2 3CL^pro [1] (pH 7.4), the IC50 was 3.57 ± 0.9 µM. `CCCCCC/C=C\CCCCCCCc1cccc(O)c1C(=O)O` [GA C15:1] showed an IC50 against SARS-CoV-2 3CL^pro [1] (pH 7.4) of 3.45 ± 0.78 µM.

On SARS-CoV-2 3CL^pro [1] (3CLpro 4 μg/mL, preincubation 37 °C 40 min, substrate 20 μM, PBS pH 7.4), `COc1ccc(-c2cc(=O)c3c(O)cc(O)c(-c4cc(-c5cc(=O)c6c(O)cc(OC)cc6o5)ccc4OC)c3o2)cc1` [sciadopitysin] had an IC50 of 1.09 ± 0.19 µM. Moreover, the Inhibition mode entry on SARS-CoV-2 3CL^pro [2] was “reversible and mixed-inhibition”. Regarding `COc1cc(O)c2c(=O)cc(-c3ccc(OC)c(-c4c(O)cc(O)c5c(=O)cc(-c6ccc(O)cc6)oc45)c3)oc2c1` [ginkgetin], at SARS-CoV-2 3CL^pro [1], the IC50 was found to be 2.98 ± 0.86 µM. Regarding `CCCCCC/C=C\CCCCCCCCCc1cccc(O)c1C(=O)O` [GA C17:1], the IC50 on SARS-CoV-2 3CL^pro [1] (pH 7.4) was 1.19 ± 0.15 µM. Besides, the Inhibition mode entry at SARS-CoV-2 3CL^pro [2] was “reversible and mixed-inhibition”. On SARS-CoV-2 3CL^pro [1], `O=c1cc(-c2ccc(O)c(-c3c(O)cc(O)c4c(=O)cc(-c5ccc(O)cc5)oc34)c2)oc2cc(O)cc(O)c12` [amentoflavone] showed an IC50 of 8.65 ± 3.72 µM. The same measure, in the same setting: as for `CC(C)(C)[C@]1(O)CC2OC(=O)CC23C(=O)OC2OC(=O)[C@H](O)C231` (some centres unmarked) [bilobalide], the figure is greater than 100 µM; as for `COc1cc(-c2oc3cc(O)cc(O)c3c(=O)c2O)ccc1O` [isorhamnetin], 31.6 ± 16.6 µM.
